Where a SMILES comes first, the peptide text is derived from it.
Assays:
[1] = Experimental: In this Example, Human Ezrin Peptide therapy comprised oral administration of a 2 mg/2 ml aqueous solution of HEP1 to HCV patients who were also infected with HIV. The patients were treated twice a day for 10 days followed by once a day for 20 days in the absence of any other anti-HIV or anti-HCV therapy. Blood samples from patients were analysed before treatment and 30 days after the end of the 30 day treatment period.
[2] = children; cited from earlier work

SMILES: CC(C)[C@H](NC(=O)[C@@H](NC(=O)[C@H](CCC(=O)O)NC(=O)[C@H](CCCNC(=N)N)NC(=O)[C@H](CCCNC(=N)N)NC(=O)[C@H](CCCCN)NC(=O)[C@H](CCCCN)NC(=O)[C@H](CCC(=O)O)NC(=O)[C@@H](N)[C@@H](C)O)[C@@H](C)O)C(=O)N[C@@H](CCC(=O)O)C(=O)N[C@@H](CCCNC(=N)N)C(=O)N[C@@H](CCC(=O)O)C(=O)N[C@@H](CCCCN)C(=O)N[C@@H](CCC(=O)O)C(=O)O [HEP1] (H-TEKKRRETVEREKE-OH)
- CD4/CD8 index ([1]; HIV+HCV infected patients): improved
- average increase of CD4 cells ([1]; HIV+HCV infected patients): 70 cells per microlitre
- patients with increased CD4 cells ([1]; HIV+HCV infected patients): 18 of 19
- side effects or adverse events ([1]; during treatment with HEP1): No side effects or adverse events were observed
- side-effects or adverse reactions [2]: No side-effects or adverse reactions
